Results from US10463610B2, “Composition comprising diacid derivatives and their use in the treatment of collagenic eye disorders” (THE UNIVERSITY OF LIVERPOOL, priority 2015, dated 2019).

System: pig corneas
Assay: Tensile test (stiffness) of pig corneas after treating whole eye globes with cross-linking solution
Conditions: Experiment 1: diacid/NHS/EDCI solution in PBS with excess EDCI, 30 minutes incubation at 37° C., n=3 (FIG. 1)
Text: Pig eyes were collected from the abattoir on the day of slaughter. They were brought to the laboratory and any remaining soft tissue was carefully dissected away leaving just globe and the small section of optic nerve. These were washed 3 times in PBS. A drop of fluorescein dye (1% diluted 1:10 in PBS) was applied to the cornea of each eye to evaluate the integrity of the corneal epithelium (as used in the clinic). The globes were then washed again in PBS 3 times.
The globes were mounted individually on Perspex rings and placed corneal side down in 6-well cell culture plates. This ensured that the eyes were balanced stably and that the corneal surface was exposed in a controlled manner to the cross-linking solution.
Dissolve 575 mg of NHS and 775 mg of EDCI in 22.5 ml of PBS. Dissolve 500 mg Sebacic acid (decanedioic acid) or 435 mg of Suberic acid (octanedioic acid) or 365 mg of Adipic acid (hexanedioic acid) in 2.5 ml of PBS. Add each diacid solution to 22.5 ml of NHS/EDCI solution.
Experiments 2 and 3 used a Molar ratio of […] of suberic:NHS:EDCI using 319 mg NHS, 430 mg EDCI and 241 mg suberic acid. NHS/EDCI dissolved first in 7.5 ml PBS and suberic acid dissolved in 7.5 ml PBS with the addition of 500 ul DMAE to aid solubility. The two solution were added to each other and made up to 15 ml if necessary.
Add diacid/NHS/EDCI solution (4-5 ml) to 3 eyes for each diacid and add PBS (4-5 ml) to 3 eyes as control. Incubate for 30 minutes at 37° C. After 30 minutes, wash off solution with PBS (5 times).
Add suberic acid/NHS/EDCI solution (4-5 ml) to 3 eyes and add PBS (4-5 ml) to 3 eyes as control. […]
Since the cross-linking chemistry is based on EDCI/NHS mediated chemistry, the individual active moieties being used (EDCI and NHS) in the treatment solution are chemically able to crosslink proteins. The ability at which the individual chemicals are able to increase the biomechanical property of the cornea was assessed. Corneas were prepared, the masses of all the chemicals were measured out, and the corneas were treated as described above. […]

SMILES	increase in stiffness compared to the untreated control corneas
O=C(O)CCCCC(=O)O [adipic acid, hexanedioic acid]	63.6%
O=C(O)CCCCCCCCC(=O)O [Sebacic acid, decanedioic acid]	54.8%
O=C(O)CCCCCCC(=O)O [suberic acid, octanedioic acid]	84.9%
